In US9751870B2, “Oxytocin receptor agonists for the treatment of CNS diseases” (Hoffmann-La Roche Inc., priority 2013, dated 2017):
pEC50: −log10 of the molar value.

Molecular target: T1, human Oxytocin (OTR) receptor (Homo sapiens, UniProt P30559)
T1 construct: expressed in transfected cells
T1 sequence (P30559 1-389): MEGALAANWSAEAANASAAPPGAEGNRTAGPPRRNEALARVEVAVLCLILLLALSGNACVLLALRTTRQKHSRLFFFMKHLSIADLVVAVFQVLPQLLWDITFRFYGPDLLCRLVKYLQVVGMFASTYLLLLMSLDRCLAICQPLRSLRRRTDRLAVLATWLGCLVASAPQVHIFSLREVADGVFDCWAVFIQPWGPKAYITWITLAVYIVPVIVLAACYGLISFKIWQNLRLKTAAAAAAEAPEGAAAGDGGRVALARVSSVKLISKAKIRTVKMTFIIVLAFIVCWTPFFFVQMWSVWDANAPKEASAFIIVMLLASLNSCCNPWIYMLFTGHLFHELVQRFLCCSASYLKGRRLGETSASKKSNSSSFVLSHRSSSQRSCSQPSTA
Test: Calcium flux assay (FLIPR), agonist mode, CHO cells expressing human OTR
Type: cell-based
Settings: calcium flux in CHO cells expressing human OTR, read-out: hEC50
Source text: Chinese Hamster Ovary (CHO) cells were transfected with expression plasmids encoding either the human V1a, the human Oxytocin (OTR) or the humanV2 receptor, the latter in combination with the chimeric Gqs5 G protein to redirect the signal to Calcium flux. Stable cells were cloned by limiting dilution to yield monoclonal cell lines expressing either human V1a, human V2+Gqs5 or human OTR receptors and selected based on functional responses detected on a fluorometric imaging plate reader (FLIPR) detecting Calcium flux in the cell after receptor activation. The stable cell lines were grown in F-12 K Nutrient Mixture (Kaighns Modification), containing 10% foetal bovine serum (FBS), 1% penicillin-streptomycin, 1% L-[…], 200 ug/ml Geneticin at 37° C. in a 10% CO2 incubator at 95% humidity.
Calcium Flux Assays Using Fluorescent Imaging (Fluorometric Imaging Plate Reader, FLIPR)
On the afternoon before the assay, cells were plated at a density of 50,000 cells/well into black 96 well plates with clear bottoms to allow cell inspection and fluorescence measurements from the bottom of each well. The density of cells was sufficient to yield a confluent monolayer the next day. Hanks balanced salt solution, without phenol red, containing 20 mM HEPES (pH 7.3) and 2.5 mM probenecid (assay buffer) was prepared fresh for each experiment. Compound dilutions were made using a Beckman Biomek 2000 laboratory automation workstation, in assay buffer containing 1% DMSO. The dye-loading buffer consisted of a final concentration of 2 μM Fluo-4-AM (dissolved in DMSO and pluronic acid) in assay buffer. The existing culture media was removed from the wells and 100 μl of the dye-loading buffer was added to each well and incubated for approximately 60 min at 37° C. in a 5% CO2 incubator at 95% humidity. Once dye-loaded, the cells were washed thoroughly on an Embla cell washer with the assay buffer to remove any unincorporated dye. Exactly 100 μl assay buffer was left in each well.
Each 96 well plate containing dye-loaded cells was placed into the FLIPR machine and the laser intensity set to a suitable level to detect low basal fluorescence. To test compounds as agonists, 25 μl diluted compound was added to the plate 10 seconds into the fluorescent measurements and fluorescent response was recorded for 5 minutes. The fluorescence data was normalized to the endogenous full agonist dose-response set at 100% for the maximum response and 0% for the minimum. Each agonist concentration-response curve was constructed using a four parameter logistic equation with Microsoft Excel XLFit as follows: Y=Minimum+((Maximum−Minimum)/(1+10^(LogEC50-X)nH)), where y is the % normalized fluorescence, minimum is the minimum y, maximum is the maximum y, log EC50 is the log10 concentration which produces 50% of the maximum induced fluorescence, x is the log10 of the concentration of the agonist compound and H is the slope of the curve (the Hill Coefficient). The maximum value gives the efficacy of the agonist test compound in percentage. The concentration of agonist that produced a half-maximal response is represented by the EC50 value, the logarithm of which yielded the pEC50 value.

Row | SMILES | pEC50
1 | O=S(=O)(Nc1ccnn1-c1ccccn1)c1ccc(OC(F)F)cc1 [Example 6, 4-Difluoromethoxy-N-(2-pyridin-2-yl-2H-pyrazol-3-yl)-benzenesulfonamide] | 6.97
2 | N#Cc1ccc(S(=O)(=O)Nc2ccnn2-c2ccccn2)cc1 [Example 8, 4-Cyano-N-(2-pyridin-2-yl-2H-pyrazol-3-yl)-benzenesulfonamide] | 7.09
3 | O=S(=O)(Nc1ccnn1-c1ccccn1)c1ccc(C(F)(F)F)cc1F [Example 22, 2-Fluoro-N-(2-pyridin-2-yl-2H-pyrazol-3-yl)-4-trifluoromethyl-benzenesulfonamide] | 6.48
4 | Cc1csc(-n2nccc2NS(=O)(=O)c2ccc(Cl)cc2F)n1 [Example 26, 4-Chloro-2-fluoro-N-[2-(4-methyl-thiazol-2-yl)-2H-pyrazol-3-yl]-benzenesulfonamide] | 6.82
5 | Cc1ccnc(-n2nccc2NS(=O)(=O)c2ccc(C#N)cc2)c1 [Example 19, 4-Cyano-N-[2-(4-methyl-pyridin-2-yl)-2H-pyrazol-3-yl]-benzenesulfonamide] | 7.20
6 | CCc1ccc(S(=O)(=O)Nc2ccnn2-c2cc(C)ccn2)cc1 [Example 18, 4-Ethyl-N-[2-(4-methyl-pyridin-2-yl)-2H-pyrazol-3-yl]-benzenesulfonamide] | 7.70
7 | O=S(=O)(Nc1ccnn1-c1ccccn1)c1ccc(SC(F)(F)F)cc1 [Example 20, N-(2-Pyridin-2-yl-2H-pyrazol-3-yl)-4-trifluoromethylsulfanyl-benzenesulfonamide] | 7.33
8 | CCCc1ccc(S(=O)(=O)Nc2ccnn2-c2ccccn2)cc1 [Example 4, 4-Propyl-N-(2-pyridin-2-yl-2H-pyrazol-3-yl)-benzenesulfonamide] | 7.47
9 | CCc1ccc(S(=O)(=O)Nc2ccnn2-c2ccccn2)cc1 [Example 3, 4-Ethyl-N-(2-pyridin-2-yl-2H-pyrazol-3-yl)-benzenesulfonamide] | 7.80
10 | Cc1ccnc(-n2nccc2NS(=O)(=O)c2ccc(Cl)cc2)c1 [Example 17, 4-Chloro-N-[2-(4-methyl-pyridin-2-yl)-2H-pyrazol-3-yl]-benzenesulfonamide] | 7.80
11 | O=S(=O)(Nc1ccnn1-c1ccccn1)c1ccc(Cl)cc1Cl [Example 13, 2,4-Dichloro-N-(2-pyridin-2-yl-2H-pyrazol-3-yl)-benzenesulfonamide] | 7.77
12 | Cc1csc(-n2nccc2NS(=O)(=O)c2ccc(Cl)cc2)n1 [Example 10, 4-Chloro-N-[2-(4-methyl-thiazol-2-yl)-2H-pyrazol-3-yl]-benzenesulfonamide] | 6.79
13 | Cc1csc(-n2nccc2NS(=O)(=O)c2ccc(C(F)(F)F)cc2)n1 [Example 9, N-[2-(4-Methyl-thiazol-2-yl)-2H-pyrazol-3-yl]-4-trifluoromethyl-benzenesulfonamide] | 6.28
14 | CC(F)c1ccc(S(=O)(=O)Nc2ccnn2-c2ccccn2)cc1 (stereo not shown) [Example 15, 4-(1-Fluoro-ethyl)-N-(2-pyridin-2-yl-2H-pyrazol-3-yl)-benzenesulfonamide] | 7.08
15 | O=S(=O)(Nc1ccnn1-c1ccnc(C(F)(F)F)n1)c1ccc(C(F)(F)F)cc1 [Example 21, 4-Trifluoromethyl-N-[2-(2-trifluoromethyl-pyrimidin-4-yl)-2H-pyrazol-3-yl]-benzenesulfonamide] | 5.80
16 | O=S(=O)(Nc1ccnn1-c1ccccn1)c1ccc(C(F)(F)F)c(F)c1 [Example 24, 3-Fluoro-N-(2-pyridin-2-yl-2H-pyrazol-3-yl)-4-trifluoromethyl-benzenesulfonamide] | 6.10
17 | O=S(=O)(Nc1ccnn1-c1ccccn1)c1ccc(C(F)(F)F)cc1Cl [Example 5, 2-Chloro-N-(2-pyridin-2-yl-2H-pyrazol-3-yl)-4-trifluoromethyl-benzenesulfonamide] | 7.04

More lines, in order of rising pEC50, values ahead:

Row | pEC50 | SMILES
18 | 5.61 | O=S(=O)(Nc1ccnn1-c1ccc(F)cc1)c1ccc(Cl)cc1 [Example 7, 4-Chloro-N-[2-(4-fluoro-phenyl)-2H-pyrazol-3-yl]-benzenesulfonamide]
19 | 5.74 | O=S(=O)(Nc1ccnn1-c1ncccn1)c1ccc(C(F)(F)F)cc1 [Example 12, N-(2-Pyrimidin-2-yl-2H-pyrazol-3-yl)-4-trifluoromethyl-benzenesulfonamide]
20 | 5.80 | CCc1ccc(S(=O)(=O)Nc2ccnn2-c2nc(C3CC3)ns2)cc1 [Example 25, N-[2-(3-Cyclopropyl-[1,2,4]thiadiazol-5-yl)-2H-pyrazol-3-yl]-4-ethyl-benzenesulfonamide]
21 | 6.12 | O=S(=O)(Nc1ccnn1-c1ccccn1)c1ccc(S(=O)(=O)C(F)(F)F)cc1 [Example 23, N-(2-Pyridin-2-yl-2H-pyrazol-3-yl)-4-trifluoromethanesulfonyl-benzenesulfonamide]
22 | 6.95 | CCc1ccc(S(=O)(=O)Nc2ccnn2-c2nc(C)cs2)cc1 [Example 11, 4-Ethyl-N-[2-(4-methyl-thiazol-2-yl)-2H-pyrazol-3-yl]-benzenesulfonamide]
23 | 7.72 | O=S(=O)(Nc1ccnn1-c1ccccn1)c1ccc(Cl)cc1 [Example 1, 4-Chloro-N-(2-pyridin-2-yl-2H-pyrazol-3-yl)-benzenesulfonamide]
24 | 7.77 | Cc1ccnc(-n2nccc2NS(=O)(=O)c2ccc(C(F)(F)F)cc2)c1 [Example 16, N-[2-(4-Methyl-pyridin-2-yl)-2H-pyrazol-3-yl]-4-trifluoromethyl-benzenesulfonamide]
25 | 8.10 | O=S(=O)(Nc1ccnn1-c1ccccn1)c1ccc(C(F)(F)F)cc1 [Example 2, N-(2-Pyridin-2-yl-2H-pyrazol-3-yl)-4-trifluoromethyl-benzenesulfonamide]
